Source: patent US8791264B2 (Purdue Pharma L.P., priority 2006, dated 2014)

Columns and labels:
[1] = target: T1, N-type calcium channel (NTCC) (Homo sapiens, UniProt Q00975); experiment: FLIPR calcium mobilization assay for N-type calcium channel; type: cell-based; settings: calcium mobilization in vitro assay; differentiated IMR32 cells
T1 construct: host or cells: IMR32 cells differentiated with dibutyryl cAMP and bromodeoxyuridine
Procedure, shortened: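 Differentiated IMR32 cells (8 days, dibutyryl cAMP and BrdU) loaded with 3 μM Fluo-4 during 90 mM KCl pre-stimulation, with compound at about 846 pM to 17 μM plus 5 μM nitrendipine. After washes in compound, FLIPR read basal fluorescence 315 s, then 45 s after KCl addition (final 90 mM).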

[2] = target: T2, recombinant rat L-type calcium channel (LTCC) subunits (α1c, α2δ, and β1) (Rattus norvegicus, UniProt P22002); experiment: FLIPR calcium mobilization assay for L-type calcium channel; type: cell-based; settings: calcium mobilization in vitro assay; HEK293 cells expressing rat LTCC
T2 construct: expressed in transfected cells
T2 sequence (P22002 whole entry): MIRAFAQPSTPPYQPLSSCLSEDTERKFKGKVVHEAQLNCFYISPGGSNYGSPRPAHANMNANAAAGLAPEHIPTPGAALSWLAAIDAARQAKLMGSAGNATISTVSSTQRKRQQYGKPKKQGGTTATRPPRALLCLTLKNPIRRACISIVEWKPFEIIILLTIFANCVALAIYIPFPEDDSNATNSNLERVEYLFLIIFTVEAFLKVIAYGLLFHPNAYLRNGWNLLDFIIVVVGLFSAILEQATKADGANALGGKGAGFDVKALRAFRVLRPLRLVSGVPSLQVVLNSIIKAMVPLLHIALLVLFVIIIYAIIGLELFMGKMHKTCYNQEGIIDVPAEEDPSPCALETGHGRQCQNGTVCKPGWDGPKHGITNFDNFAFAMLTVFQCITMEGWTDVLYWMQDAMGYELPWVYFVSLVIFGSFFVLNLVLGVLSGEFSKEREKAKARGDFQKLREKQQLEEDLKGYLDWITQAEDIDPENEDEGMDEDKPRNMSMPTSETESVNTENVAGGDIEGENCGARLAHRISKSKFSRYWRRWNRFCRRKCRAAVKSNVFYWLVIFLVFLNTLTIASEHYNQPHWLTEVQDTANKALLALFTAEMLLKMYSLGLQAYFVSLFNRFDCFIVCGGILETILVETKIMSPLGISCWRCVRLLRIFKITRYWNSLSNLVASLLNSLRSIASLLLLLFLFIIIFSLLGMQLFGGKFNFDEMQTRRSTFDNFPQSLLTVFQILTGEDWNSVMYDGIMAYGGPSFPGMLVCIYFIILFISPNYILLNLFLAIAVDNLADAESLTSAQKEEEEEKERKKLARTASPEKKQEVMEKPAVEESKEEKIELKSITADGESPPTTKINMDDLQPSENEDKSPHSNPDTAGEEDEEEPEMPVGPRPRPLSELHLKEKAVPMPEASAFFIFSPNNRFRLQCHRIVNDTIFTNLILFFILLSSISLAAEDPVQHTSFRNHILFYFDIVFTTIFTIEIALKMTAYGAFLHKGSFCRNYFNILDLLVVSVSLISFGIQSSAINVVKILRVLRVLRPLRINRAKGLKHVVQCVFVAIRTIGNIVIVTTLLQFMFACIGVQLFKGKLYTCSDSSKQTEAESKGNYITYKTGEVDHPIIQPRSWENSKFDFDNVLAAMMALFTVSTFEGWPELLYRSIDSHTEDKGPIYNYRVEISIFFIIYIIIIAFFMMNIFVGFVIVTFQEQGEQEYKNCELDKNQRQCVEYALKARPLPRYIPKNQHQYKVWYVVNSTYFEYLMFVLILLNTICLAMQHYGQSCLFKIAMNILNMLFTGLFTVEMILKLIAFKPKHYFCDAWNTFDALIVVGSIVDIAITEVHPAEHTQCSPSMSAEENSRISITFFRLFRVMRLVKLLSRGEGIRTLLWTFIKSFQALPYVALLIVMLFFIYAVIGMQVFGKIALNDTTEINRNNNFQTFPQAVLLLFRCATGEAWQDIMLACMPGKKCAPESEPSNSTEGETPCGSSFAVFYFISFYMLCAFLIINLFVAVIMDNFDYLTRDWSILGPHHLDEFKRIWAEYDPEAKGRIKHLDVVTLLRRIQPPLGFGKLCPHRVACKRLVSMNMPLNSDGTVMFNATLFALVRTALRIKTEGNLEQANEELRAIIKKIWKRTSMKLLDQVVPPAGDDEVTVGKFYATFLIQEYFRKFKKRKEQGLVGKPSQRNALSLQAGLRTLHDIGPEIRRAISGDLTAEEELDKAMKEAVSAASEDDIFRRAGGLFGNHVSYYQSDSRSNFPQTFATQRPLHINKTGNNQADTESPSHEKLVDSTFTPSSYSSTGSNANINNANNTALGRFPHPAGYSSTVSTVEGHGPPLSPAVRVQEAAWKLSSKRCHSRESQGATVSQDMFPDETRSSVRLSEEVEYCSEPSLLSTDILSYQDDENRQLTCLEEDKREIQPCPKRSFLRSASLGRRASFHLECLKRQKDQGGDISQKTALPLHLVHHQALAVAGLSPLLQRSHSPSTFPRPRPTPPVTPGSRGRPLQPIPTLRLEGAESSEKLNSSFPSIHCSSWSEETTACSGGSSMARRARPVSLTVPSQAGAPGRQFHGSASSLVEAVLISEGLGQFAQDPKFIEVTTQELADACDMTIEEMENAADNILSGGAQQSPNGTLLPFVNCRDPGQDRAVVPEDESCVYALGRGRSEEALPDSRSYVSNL
T2 sequence (P54290 25-944 partner limits assumed): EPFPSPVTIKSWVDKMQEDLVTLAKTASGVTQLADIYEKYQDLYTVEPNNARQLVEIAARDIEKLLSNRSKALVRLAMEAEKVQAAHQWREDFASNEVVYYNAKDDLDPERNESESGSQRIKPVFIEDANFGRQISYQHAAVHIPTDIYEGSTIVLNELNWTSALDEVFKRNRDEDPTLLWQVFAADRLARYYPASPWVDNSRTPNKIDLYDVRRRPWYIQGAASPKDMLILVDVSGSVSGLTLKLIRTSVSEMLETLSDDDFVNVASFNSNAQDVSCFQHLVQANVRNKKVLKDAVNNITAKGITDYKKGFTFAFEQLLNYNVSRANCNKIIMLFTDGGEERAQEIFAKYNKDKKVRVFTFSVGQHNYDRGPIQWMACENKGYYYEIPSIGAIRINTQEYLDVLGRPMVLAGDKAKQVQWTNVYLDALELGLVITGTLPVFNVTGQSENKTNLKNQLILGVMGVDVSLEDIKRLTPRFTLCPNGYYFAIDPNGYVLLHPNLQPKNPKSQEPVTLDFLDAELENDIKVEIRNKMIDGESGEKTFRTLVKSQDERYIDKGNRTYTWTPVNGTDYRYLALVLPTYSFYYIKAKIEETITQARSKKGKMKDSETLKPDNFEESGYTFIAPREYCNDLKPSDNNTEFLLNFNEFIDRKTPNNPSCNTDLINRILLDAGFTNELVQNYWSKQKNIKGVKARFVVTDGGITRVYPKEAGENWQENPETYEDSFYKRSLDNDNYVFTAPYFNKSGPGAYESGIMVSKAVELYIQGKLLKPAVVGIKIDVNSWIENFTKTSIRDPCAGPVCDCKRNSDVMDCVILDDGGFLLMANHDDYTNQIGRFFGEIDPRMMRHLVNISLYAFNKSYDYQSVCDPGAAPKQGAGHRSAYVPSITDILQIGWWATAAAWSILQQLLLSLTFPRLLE
T2 sequence (P54290 945-1091 partner limits assumed): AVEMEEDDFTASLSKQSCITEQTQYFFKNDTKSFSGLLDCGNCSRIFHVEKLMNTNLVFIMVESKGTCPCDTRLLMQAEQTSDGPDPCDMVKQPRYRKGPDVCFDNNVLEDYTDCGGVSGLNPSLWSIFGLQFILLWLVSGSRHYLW
T2 sequence (P54283 whole entry partner): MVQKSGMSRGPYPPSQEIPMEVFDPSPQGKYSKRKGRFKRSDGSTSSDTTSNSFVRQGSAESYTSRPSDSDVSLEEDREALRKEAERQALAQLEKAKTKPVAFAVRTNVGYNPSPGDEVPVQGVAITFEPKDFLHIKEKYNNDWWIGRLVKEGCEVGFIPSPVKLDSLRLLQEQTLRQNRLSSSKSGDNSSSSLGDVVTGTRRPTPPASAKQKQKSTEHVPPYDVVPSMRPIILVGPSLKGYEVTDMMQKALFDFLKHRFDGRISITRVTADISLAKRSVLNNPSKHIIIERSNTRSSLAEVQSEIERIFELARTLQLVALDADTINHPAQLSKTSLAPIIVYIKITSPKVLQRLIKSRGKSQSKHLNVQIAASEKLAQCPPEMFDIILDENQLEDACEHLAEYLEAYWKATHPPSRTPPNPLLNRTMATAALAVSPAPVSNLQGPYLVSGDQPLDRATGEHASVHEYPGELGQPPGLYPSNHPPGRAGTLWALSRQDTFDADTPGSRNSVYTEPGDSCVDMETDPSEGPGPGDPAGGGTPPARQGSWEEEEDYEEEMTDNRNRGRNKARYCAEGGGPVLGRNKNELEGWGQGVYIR
Procedure, shortened: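 HEK293 cells stably expressing rat LTCC (α1c, α2δ, β1), Fluo-4 loaded in pH 7.4 buffer with 5 mM CaCl2. Compound (about 846 pM to 17 μM final) applied 5 minutes before depolarization with 90 mM KCl final; FLIPR fluorescence recorded throughout.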

IC50 [1] [nM] | IC50 [2] [nM] | Compound
700 | 7730 | CC(C)N(C1CCN(C(=O)CN(CCO)Cc2ccccc2)CC1)S(=O)(=O)c1cccc(C(F)(F)F)c1 [Compound 103, N-(1-{2-[Benzyl-(2-hydroxyethyl)-amino]acetyl}-piperidin-4-yl)-N-isopropyl-3-trifluoromethylbenzenesulfonamide]
410 | > 20000 | CC(C)N(C1CCN(CC(=O)Nc2ccc(C(F)(F)F)cn2)CC1)S(=O)(=O)c1cccc(C(F)(F)F)c1 [Compound 42m, 2-{4-[Isopropyl-(3-trifluoromethylbenzenesulfonyl)amino]-piperidin-1-yl}-N-(5-trifluoromethylpyridin-2-yl)-acetamide]
280 | 2680 | CC(C)N(C1CCN(CC(=O)Nc2ccc(F)cc2)CC1)S(=O)(=O)c1cccc(C(F)(F)F)c1 [Compound 44, N-(4-Fluorophenyl)-2-{4-[isopropyl-(3-trifluoromethylbenzenesulfonyl)amino]-piperidin-1-yl}-acetamide]
700 | > 20000 | CN(C1CCN(CC(=O)Nc2ccc(F)cc2)CC1)S(=O)(=O)c1cccc(C(F)(F)F)c1 [Compound 51, N-(4-Fluorophenyl)-2-{4-[methyl-(3-trifluoromethylbenzenesulfonyl)-amino]-piperidin-1-yl}-acetamide]
330 | > 20000 | CC(C)N(C1CCN(C(=O)CCNc2ccccc2OC(F)(F)F)CC1)S(=O)(=O)c1cccc(C(F)(F)F)c1 [N-isopropyl-N-{1-[3-(2-trifluoromethoxy-phenylamino)-propionyl]-piperidin-4-yl}-3-trifluoromethyl-benzenesulfonamide]
110 | 9540 | CCOc1ccccc1NC(=O)CN1CCC(N(C(C)C)S(=O)(=O)c2cccc(C(F)(F)F)c2)CC1 [Compound 42c, N-(2-Ethoxyphenyl)-2-{4-[isopropyl-(3-trifluoromethylbenzenesulfonyl)amino]-piperidin-1-yl}-acetamide]
720 | > 20000 | O=C(CN1CCC(N(C2CC2)S(=O)(=O)c2cccc(C(F)(F)F)c2)CC1)Nc1ccc(C(F)(F)F)cc1 [Compound 55, 2-{4-[Cyclopropyl-(3-trifluoromethylbenzenesulfonyl)amino]-piperidin-1-yl}-N-(4-trifluoromethylphenyl)acetamide]
840 | 10000 to 20000 | O=C(CN1CCC(N(C2CC2)S(=O)(=O)c2cccc(Cl)c2)CC1)Nc1ccc(F)cc1 [Compound 50, 2-{4-[(3-Chlorobenzenesulfonyl)cyclopropylamino]-piperidin-1-yl}-N-(4-fluorophenyl)acetamide]
540 | > 20000 | CCOC(=O)c1ccc(NC(=O)CN2CCC(N(C3CC3)S(=O)(=O)c3cccc(C(F)(F)F)c3)CC2)cc1 [Compound 54, 4-(2-{4-[Cyclopropyl-(3-trifluoromethylbenzenesulfonyl)amino]-piperidin-1-yl}-acetylamino)benzoic acid ethyl ester]
610 | > 20000 | O=C(CN1CCC(N(C2CC2)S(=O)(=O)c2cccc(C(F)(F)F)c2)CC1)Nc1cc(F)cc(C(F)(F)F)c1 [Compound 73, 2-{4-[Cyclopropyl-(3-trifluoromethylbenzenesulfonyl)amino]-piperidin-1-yl}-N-(3-fluoro-5-trifluoromethylphenyl)-acetamide]
300 | > 20000 | CC(C)C[C@H](NCc1ccccc1)C(=O)N1CCC(N(C(C)C)S(=O)(=O)c2cccc(C(F)(F)F)c2)CC1 [Compound 88b, (S)—N-[1-(2-Benzylamino-4-methylpentanoyl)-piperidin-4-yl]-N-isopropyl-3-trifluoromethylbenzenesulfonamide]
310 | 5920 | Cc1cccc(C)c1NC(=O)CN1CCC(N(C2CC2)S(=O)(=O)c2cccc(C(F)(F)F)c2)CC1 [Compound 58, 2-{4-[Cyclopropyl-(3-trifluoromethylbenzenesulfonyl)-amino]-piperidin-1-yl}-N-(2,6-dimethylphenyl)acetamide]
